This note sets out measurements from article PMC9166766 (Experimental & Molecular Medicine, 2022).

No end group written: not given here.

For assay [1], the system named is CNAβ2 (calcineurin catalytic subunit). Kind of assay: Mammalian two-hybrid assay (VP16 AD-CNAβ2 and GAL4 DBD-peptides, pG5-luc) in HEK293T cells. It is filed as cell-based. As for the experimental part:
(§1) To measure the transcriptional activity of NFAT, we cotransfected Jurkat T cells with GST-tagged peptides and NFAT-luc by electroporation. After 24 h, we pretreated the cells with 0.5 μM FK506 for 1 h and then treated them with 40 nM PMA and 1 μM ionomycin for 8 h. For the mammalian two-hybrid assay, we cotransfected HEK293T cells with GAL4 DBD-tagged CABIN1, VIVIT, chimeric and substituted peptides, VP16 activation domain-tagged CNAβ2, and pG5-luc (luciferase reporter plasmid containing the GAL4-responsive promoter) for 24 h. We lysed the harvested cells with a luciferase assay lysis buffer (17 mM KH2PO4, 183 mM K2HPO4, pH 7.8, 0.2% [v/v] Triton X-100) and sonicated them briefly. We measured luciferase activity for each cell lysate using an Infinite M200 (Tecan, Männedorf, Switzerland). In addition, we confirmed the expression level of the transfected proteins by Western blotting.
A mammalian two-hybrid assay using these peptides was performed (bottom). The compositions of the transfected DNA are described in Supplementary Fig. 1a–c. All experiments were repeated three times and are presented as the mean ± standard deviation. […] SE short exposure, LE long exposure, NC negative control, WT wild-type.
NC negative control, WT wild-type.

The subject of assay [2] is NFAT transcriptional activity. Nature of the assay: NFAT-luc luciferase reporter assay in Jurkat T cells. The conditions noted are these: GST-tagged peptides, 40 nM PMA and 1 μM ionomycin 8 h. It is filed as cell-based. As for the experimental part: as §1
RU response units, NC negative control.
(1 picture or pasted object on this page, not shown here)

With “CABIN1-L-1-2: 10 amino acids from proline 2146 to proline 2155 of full-length CABIN1; expressed GST-, GAL4 DBD- or HA-mCherry-tagged (PEITVTPPTP; also: expressed GST-, GAL4 DBD- or HA-mCherry-tagged, end not given here)”, the “interaction with / binding affinity to CNA (mammalian two-hybrid)” value in assay [1] (CNAβ2, 24 h, repeated three times) is recorded as “still bound to CNA”. Moreover, the “interaction with CNA, effect of 1 μM ionomycin” value in assay [1] (with or without 1 μM ionomycin) is reported as “did not affect the interaction”. Also, the NFAT luciferase activity result in assay [2] (n = 3) is listed as “repressed luciferase activity compared with the negative control”. In addition, the “inhibitory effect on NFAT luciferase relative to VIVIT peptide” value in assay [2] (n = 3, vs VIVIT peptide) was “approximately four times stronger than that of the VIVIT peptide”.
